Test results as given in US20250332173A1, “COMPOUNDS AND METHODS FOR MODULATING NUCLEIC ACID SPLICING” (REMIX THERAPEUTICS INC., priority 2021, published 2025).
pIC50: −log10 of the molar value. Read-outs that look alike come from different tables or passages of the source.

Tests used:
Target C [1] = test: HiBiT protein abundance assay, Target C HiBiT K562 cell line; assay type: cell-based; settings: Homo sapiens; HiBiT lytic detection, modified K562 cells, 24 hours, top dose 10 μM; read-out: Effect on protein abundance, Target C (IC50)
Outline: (§1)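 HiBiT knock-in K562 cells (10,000/well) were treated for 24 h at 37 °C with a 10-point 3-fold dilution series, top final concentration 10 μM, DMSO ≤0.25%. Lytic HiBiT luminescence was read, normalized to unmodified K562 and DMSO-treated controls, and IC50 was interpolated from a four-parameter logistic fit.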

MYB = test: HiBiT protein abundance assay, MYB HiBiT K562 cell line; assay type: cell-based, human; settings: 24 hours, top dose 10 μM
Outline: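 Endogenous targets in K562 knock-in lines carried a HiBiT tag and were treated for 24 h at 37 °C with 10-point 3-fold dilutions (top 10 μM final, DMSO ≤0.25%). Abundance was read as lytic Nano-Glo HiBiT luminescence. IC50 came from a four-parameter logistic fit of normalized response.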

Target C [2] = test: HiBiT protein abundance assay, Target C (Promega Nano-Glo HiBiT Lytic Detection System, knock-in K562 cell line); assay type: cell-based, human; settings: Homo sapiens, K562, 24 h, HiBiT K562 cell line, 24 hours, top dose 10 μM; read-out: Effect on protein abundance, Target C (IC50 category)
Outline: as §1

[3] = HiBiT lytic detection, modified K562 cells, read-out: Effect on protein abundance, MYB (IC50)
[4] = HiBiT K562 cell line, read-out: Effect on protein abundance, MYB (IC50 category)

| SMILES | pIC50 (Target C [1]) | pIC50 (MYB; [3]) | pIC50 (Target C [2]) | pIC50 (MYB; [4]) |
| --- | --- | --- | --- | --- |
| Cc1cn2cc(-n3cnc4ccc(N5CCN(C)CC5)cc4c3=O)cc(F)c2n1 [Compound 2197] | 5.00 to 6.00 | 5.00 to 6.00 | – | – |
| CN1CCC(N(C)c2ccc3ncn(-c4cc(F)c5nn(C)cc5c4)c(=O)c3c2)CC1 [Compound 2199] | < 5.00 | < 5.00 | – | – |
| COc1cc(-c2ccc3c(=O)n([C@H]4CCN[C@@H](C)C4)ccc3n2)nn2cc(C)nc12 [Compound 1519, 2-(8-methoxy-2-methyl-imidazo[1,2-b]pyridazin-6-yl)-6-[(2S,4S)-2-methyl-4-piperidyl]-1,6-naphthyridin-5-one] | > 7.00 | > 7.00 | – | – |
| Cc1cn2nc(-c3ccc4c(=O)n(C5CC(C)N[C@H](C)C5)ncc4n3)cc(C)c2n1 (stereo in doubt) [Compound 1536, 2-(2,8-dimethylimidazo[1,2-b]pyridazin-6-yl)-6-[(2S,6R)-2,6-dimethyl-4-piperidyl]pyrido[2,3-d]pyridazin-5-one] | 6.00 to 7.00 | 6.00 to 7.00 | – | – |
| Cc1cc(-c2ccc3c(=O)[nH]c(N4CCNCC4)nc3c2)cc2cn(C)nc12 [Compound 2211] | < 5.00 | < 5.00 | – | – |
| Cc1cn2nc(-c3ccc4c(=O)n(C5CCNC6(CCC6)C5)ncc4n3)cc(C)c2n1 (stereo not shown) [Compound 1553] | 5.00 to 6.00 | 5.00 to 6.00 | – | – |
| Cc1cn2nc(-n3cnc4ccc(N5CCNCC5)cc4c3=O)cc(C)c2n1 [Compound 2201] | < 5.00 | < 5.00 | – | – |
| Cc1cn2nc(-c3ccc4c(=O)n([C@@H]5CCN(C)[C@H](C)C5)ncc4n3)cc(C)c2n1 [Compound 1527] | 6.00 to 7.00 | 6.00 to 7.00 | – | – |
| Cc1cn2nc(-n3cnc4ccc(N5CCN(C)CC5)cc4c3=O)cc(C)c2n1 [Compound 2202] | 5.00 to 6.00 | 5.00 to 6.00 | – | – |
| Cc1cn2nc(-c3ccc4c(=O)n([C@H]5CCN(C)[C@@H](C)C5)ncc4n3)cc(C)c2n1 [Compound 1528, 2-(2,8-dimethylimidazo[1,2-b]pyridazin-6-yl)-6-(1,2-dimethyl-4-piperidyl)pyrido[2,3-d]pyridazin-5-one] | 6.00 to 7.00 | 6.00 to 7.00 | – | – |
| Cc1cc(-c2ccc3c(=O)[nH]c(N4CCN(C)CC4)nc3c2)cc2cn(C)nc12 [Compound 2212] | < 5.00 | < 5.00 | – | – |
| CN(c1ccc2ncn(-c3cc(F)c4nn(C)cc4c3)c(=O)c2c1)C1CCNCC1 [Compound 2198] | < 5.00 | < 5.00 | – | – |
| Cc1cc(-c2ccc3ncn(C4CCN(C)CC4)c(=O)c3c2)cc2cn(C)nc12 [Compound 2170] | < 5.00 | < 5.00 | – | – |
| Cc1cn2cc(-n3cnc4ccc(N5CCNCC5)cc4c3=O)cc(F)c2n1 [Compound 2195] | < 5.00 | < 5.00 | – | – |
| Cc1cn2cc(-n3cnc4ccc(N(C)C5CCNCC5)cc4c3=O)cc(F)c2n1 [Compound 2200] | < 5.00 | < 5.00 | – | – |
| Cc1cn2nc(-c3ccc4c(=O)n([C@@H]5CCNC6(CCC6)C5)ncc4n3)cc(C)c2n1 [Compound 1545, 6-[(8R)-5-azaspiro[3.5]nonan-8-yl]-2-(2,8-dimethylimidazo[1,2-b]pyridazin-6-yl)pyrido[2,3-d]pyridazin-5-one] | > 7.00 | 6.00 to 7.00 | – | – |
| Cc1cn2cc(-c3ccc4c(c3)CCN(C3CCNCC3)C4=O)ncc2n1 [Compound 224] | – | – | < 5.00 | < 5.00 |
| Cc1cn2cc(-c3cc(F)c4c(=O)n(C5CCN(C)CC5)cnc4c3)cc(F)c2n1 [Compound 231, 5-fluoro-7-{8-fluoro-2-methylimidazo[1,2-a]pyridin-6-yl}-3-(1-methylpiperidin-4-yl)quinazolin-4-one] | – | – | 6.00 to 7.00 | 6.00 to 7.00 |
| Cc1cn2nc(-c3ccc4c(=O)n([C@H]5CC(C)N[C@@H](C)C5)ncc4n3)cc(C)c2n1 (stereo in doubt) [Compound 1538, 2-(2,8-dimethylimidazo[1,2-b]pyridazin-6-yl)-6-[(2S,6S)-2,6-dimethyl-4-piperidyl]pyrido[2,3-d]pyridazin-5-one] | – | – | 6.00 to 7.00 | 6.00 to 7.00 |
| Cc1cn2cc(-c3ccc4c(c3)CCN(C3CCNCC3)C4=O)nc2c(C)n1 [Compound 221, 6-[6,8-dimethylimidazo[1,2-a]pyrazin-2-yl]-2-(piperidin-4-yl)-3,4-dihydroisoquinolin-1-one] | – | – | < 5.00 | < 5.00 |
| Cc1cc(-c2ccc3c(=O)n(C4CCN(C)CC4)cnc3c2F)cc2cn(C)nc12 [Compound 235] | – | – | < 5.00 | 5.00 to 6.00 |

Second part, the compound after the results:

| pIC50 (Target C [1]) | pIC50 (MYB; [3]) | pIC50 (Target C [2]) | pIC50 (MYB; [4]) | SMILES |
| --- | --- | --- | --- | --- |
| < 5.00 | < 5.00 | – | – | Cc1cc(-c2ccc3ncn(C4CCNCC4)c(=O)c3c2)cc2cn(C)nc12 [Compound 2169] |
| < 5.00 | < 5.00 | – | – | Cc1cc(-c2nc3cc(N4CCNCC4)ccc3c(=O)[nH]2)cc2cn(C)nc12 [Compound 2213] |
| 6.00 to 7.00 | > 7.00 | – | – | Cn1cc2cc(-c3ncc4c(=O)n(C56CCC(N)(CC5)C6)ccc4n3)c(O)c(F)c2n1 [Compound 1468] |
| < 5.00 | < 5.00 | – | – | Cn1cc2cc(-n3cnc4ccc(N5CCNCC5)cc4c3=O)cc(F)c2n1 [Compound 2196] |
| 5.00 to 6.00 | 6.00 to 7.00 | – | – | Cc1c(O)c(-c2ncc3c(=O)n([C@@H]4CC[C@@H](N)C4)ccc3n2)cc2cn(C)nc12 [Compound 1476, 6-[(1R,3R)-3-aminocyclopentyl]-2-(6-hydroxy-2,7-dimethyl-indazol-5-yl)pyrido[4,3-d]pyrimidin-5-one] |
| 6.00 to 7.00 | > 7.00 | – | – | Cc1c(O)c(-c2nc(C)c3c(=O)n([C@@H]4CCNC5(CC5)C4)ccc3n2)cc2cn(C)nc12 [Compound 1515, (R)-2-(6-hydroxy-2,7-dimethyl-2H-indazol-5-yl)-4-methyl-6-(4-azaspiro[2.5]octan-7-yl)pyrido[4,3-d]pyrimidin-5(6H)-one] |
| 5.00 to 6.00 | 6.00 to 7.00 | – | – | Cc1cn2cc(-c3ncc4c(=O)n(C56CCC(N)(CC5)C6)ccc4n3)cc(F)c2n1 [Compound 1469, 6-(4-aminonorbornane-1-yl)-2-(8-fluoro-2-methyl-imidazo[1,2-a]pyridin-6-yl)pyrido[4,3-d]pyrimidin-5-one] |
| 5.00 to 6.00 | 6.00 to 7.00 | – | – | Cc1c(O)c(-c2ccc3c(=O)n(C4CCNC4)cc(C)c3n2)cc2cn(C)nc12 (stereo not shown) [Compound 1467] |
| 6.00 to 7.00 | 6.00 to 7.00 | – | – | Cc1c(O)c(-c2ncc3c(=O)n([C@@H]4CC[C@H](N)C4)ccc3n2)cc2cn(C)nc12 [Compound 1477] |
| < 5.00 | < 5.00 | – | – | Cn1cc2ccc(-n3cnc4ccc(NC5CCNCC5)cc4c3=O)cc2n1 [Compound 2164] |
| 5.00 to 6.00 | 6.00 to 7.00 | – | – | Cn1cc2cc(-c3ncc4c(=O)n(C56CCC(N)(CC5)C6)ccc4n3)c(O)cc2n1 [Compound 1470] |
| 6.00 to 7.00 | 6.00 to 7.00 | – | – | Cc1cn2nc(-c3ccc4c(=O)n([C@H]5CCN(C)C6(CC6)C5)ncc4n3)cc(C)c2n1 [Compound 1533] |
| 6.00 to 7.00 | 6.00 to 7.00 | – | – | CCN1CC[C@H](n2ncc3nc(-c4cc(C)c5nc(C)cn5n4)ccc3c2=O)CC12CC2 [Compound 1531] |
| > 7.00 | 6.00 to 7.00 | – | – | Cc1cn2nc(-c3ccc4c(=O)n([C@@H]5CCN(C)C6(CC6)C5)ncc4n3)cc(C)c2n1 [Compound 1534] |
| 6.00 to 7.00 | 6.00 to 7.00 | – | – | Cn1cc2cc(-c3ncc4c(=O)n([C@@H]5CCNC5)ccc4n3)c(O)c(F)c2n1 [Compound 1466] |
| 5.00 to 6.00 | > 7.00 | – | – | CNC12CCC(n3ccc4nc(-c5cc6cn(C)nc6c(C)c5O)ncc4c3=O)(CC1)C2 [Compound 1479] |
| 6.00 to 7.00 | 6.00 to 7.00 | – | – | Cc1cn2nc(-c3ccc4c(=O)n(C5CCN(CC6CC6)C6(CC6)C5)ncc4n3)cc(C)c2n1 (stereo not shown) [Compound 1543, 6-[4-(cyclopropylmethyl)-4-azaspiro[2.5]octan-7-yl]-2-(2,8-dimethylimidazo[1,2-b]pyridazin-6-yl)pyrido[2,3-d]pyridazin-5-one] |
| 6.00 to 7.00 | > 7.00 | – | – | Cc1c(O)c(-c2ncc3c(=O)n([C@H]4CCNC5(CC5)C4)ccc3n2)cc2cn(C)nc12 [Compound 1512] |
| 6.00 to 7.00 | 5.00 to 6.00 | – | – | Cc1cn2nc(-c3ccc4c(=O)n(C5CCN(CCF)C6(CC6)C5)ncc4n3)cc(C)c2n1 (stereo not shown) [Compound 1542, 2-(2,8-dimethylimidazo[1,2-b]pyridazin-6-yl)-6-[4-(2-fluoroethyl)-4-azaspiro[2.5]octan-7-1]pyrido[2,3-d]pyridazin-5-one] |
| < 5.00 | < 5.00 | – | – | CN1CCC(Nc2ccc3ncn(-c4ccc5nn(C)cc5c4)c(=O)c3c2)CC1 [Compound 2171] |
| > 7.00 | > 7.00 | – | – | CCN1CC[C@@H](n2ncc3nc(-c4cc(C)c5nc(C)cn5n4)ccc3c2=O)CC12CC2 [Compound 1530] |
| – | – | 6.00 to 7.00 | > 7.00 | Cc1c(O)c(-c2ncc3c(=O)n([C@H]4CC[C@H](N(C)C)CC4)ccc3n2)cc2cn(C)nc12 [Compound 1459, 6-((1r,4r)-4-(dimethylamino)cyclohexyl)-2-(6-hydroxy-2,7-dimethyl-2H-indazol-5-yl)pyrido[4,3-d]pyrimidin-5(6H)-one] |
| – | – | 6.00 to 7.00 | > 7.00 | Cc1cn2cc(-c3ncc4c(=O)n([C@H]5CCNC6(CC6)C5)ccc4n3)cc(F)c2n1 [Compound 1458, 6-[(7S)-4-azaspiro[2.5]octan-7-yl]-2-(8-fluoro-2-methyl-imidazo[1,2-a]pyridin-6-yl)pyrido[4,3-d]pyrimidin-5-one] |
